Reference: patent publication US7834013B2, “Aminophenylcyclopropyl carboxylic acids and derivatives as agonists to GPR40” (GlaxoSmithKline LLC, priority 2003, dated 2010)

Target: T1, GPR40 (Homo sapiens, UniProt O14842)
T1 construct: expressed in transfected cells
Assay: GPR40 SAR Primary Assay (Elk-1/Gal4-luc+ reporter, luciferase activity)
Type: cell-based
Conditions: stable GPR40 Elk-1/Gal4-luc+ CHO cell line, 5 hours incubation
Protocol: An existing stable GPR40 Elk-1/Gal4-luc^+ CHO cell line generated by electroporation and functional cloning was used. Cells were maintained in a humidified incubator at 37° C./5% CO2 in complete media containing DMEM/F12 (Gibco, #11039-021), 5% FBS (Gibco, #16140-071) and 1% Glutamine (Gibco, #25030-081). Cell maintenance passages were made at 1:40 dilution every 3-4 days. Forty eight hours prior to assay, 15e6 cells were added to 200 ml of complete media then seeded into a 1200 cm^2-cell factory and returned to a humidified incubator at 37° C./5% CO2. 20 hours prior to assay, the growth media was removed and replaced with 200 ml of serum-free DMEM/F12 to quiesce background activity. At the time of assay, cells were harvested using non-enzymatic cell dissociation solution (Sigma, #C-5914), washed and counted. The 20 hour starve media was collected and used as condition media for cell assay plating. Cells were plated at a concentration of 10,000 cells/well in a total well volume of […] in black 96-well clear bottom polystyrene plates (CoStar, #3904). Test compounds were prepared as serial dilutions in 100% DMSO, then 1 ul was delivered to each well resulting in a final concentration of 1% DMSO. The plates were then returned to a humidified incubator at 37° C./5% CO2 for 5 hours. Following the incubation, the medium was replaced with 50 ul of a 1:1 mixture of SteadyGlo™ (Promega, #E2550) and dPBS containing 1 mM CaCl2 and 1 mM MgCl2. Plates were then sealed and subjected to dark adaptation at room temperature for 10 minutes. Luciferase activity was measured on a Packard TopCount™ microplate scintillation counter using 2 seconds per well count time.
Data analysis was performed using standard methods.
The Normalization Equation used was 100*(Unknown compound response−Background response)/(Agonist Max response−Background response).
The Curve Fit Function used was y=((Vmax*x^n)/(K^n+x^n))+Y2.
A percent max response and pEC50 were recorded for each compound. Although specific pEC50 values are given, these values should be considered exemplary. Those skilled in the art will appreciate the variability in performing and recording the biological activity assays that are herein described. The compounds of the present invention provide a pEC50 of at least 5.0.

T1 sequence (O14842 whole entry): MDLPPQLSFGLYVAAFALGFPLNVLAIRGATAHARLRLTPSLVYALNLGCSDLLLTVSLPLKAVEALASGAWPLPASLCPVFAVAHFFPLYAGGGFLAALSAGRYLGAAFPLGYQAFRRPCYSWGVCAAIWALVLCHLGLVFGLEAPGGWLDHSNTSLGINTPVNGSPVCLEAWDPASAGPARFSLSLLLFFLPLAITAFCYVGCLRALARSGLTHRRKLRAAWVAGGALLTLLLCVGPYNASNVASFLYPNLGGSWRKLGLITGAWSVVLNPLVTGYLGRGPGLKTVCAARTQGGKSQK

Row | SMILES | EC50 [nM]
1 | Cc1nc(-c2ccc(C(F)(F)F)cc2)sc1CNc1ccc(C2CC2C(=O)NC(C)C)cc1 (stereo not drawn) [Example 53, Enantiomerically Enriched N-isopropyl-2-{4-[({4-methyl-2-[4-(trifluoromethyl)phenyl]-1,3-thiazol-5-yl}methyl)amino]phenyl}cyclopropanecarboxamide] | 10
2 | O=C(NCC1CC1)C1CC1c1ccc(NCc2cccc(Oc3ccccc3)c2)cc1 (stereo not drawn) [Example 54, Enantiomerically Enriched N-(cyclopropylmethyl)-2-{4-[(3-phenoxybenzyl)amino]phenyl}cyclopropanecarboxamide] | 20
